Counter-ions that a name gives are not always drawn.
Assay: Acid value (KOH titration)
Type: physicochemical
Conditions: aconitate/citrate products, Table 4
Method: The aconitates and citrates prepared in the above examples and comparative examples were tested for acid value, purity, chromaticity, yield, triester conversion rate, and water content. […] The mixture was neutralized with 0.02 mol·L^-1 potassium hydroxide aqueous solution until a faint pink color appears, and the consumed volume Vo was recorded. 1 g of the sample (accurate to 0.01 g) was weighed using a ground-neck conical flask, then one portion of the above neutralized solution was added. After the sample was completely dissolved, the sample was titrated with 0.02 mol·L^-1 potassium hydroxide-ethanol standard titration solution (the titration should be completed within 30 seconds) until a faint pink color appeared and persisted for 5 seconds without fading, which was considered as an end point. The consumed volume V was recorded. […] Chromatographic column: C18 column; injector: 10 µL micro-syringe; solvent: acetonitrile (HPLC grade); acquisition time: 15 min; mobile phase: 80% acetonitrile (HPLC grade) and 20% deionized water; injection volume: 1 µL; wavelength: 230 nm.

In order of rising Acid value:
1. CCCCOC(=O)C=C(CC(=O)OCCCC)C(=O)OCCCC [Example 19, tributyl aconitate]  0.05 KOH/g
2. CCCCOC(=O)C=C(CC(=O)OCCCC)C(=O)OCCCC [Example 24, tributyl aconitate]  0.05 KOH/g
3. CCCCOC(=O)C=C(CC(=O)OCCCC)C(=O)OCCCC [Example 26, tributyl aconitate]  0.05 KOH/g
4. CCCCOC(=O)C=C(CC(=O)OCCCC)C(=O)OCCCC [Example 32, tributyl aconitate]  0.05 KOH/g
5. CCCCOC(=O)CC(O)(CC(=O)OCCCC)C(=O)OCCCC [Comparative Example 5, tributyl citrate, reference compound]  0.05 KOH/g
6. CCCCOC(=O)C=C(CC(=O)OCCCC)C(=O)OCCCC [Comparative Example 1, tributyl aconitate, reference compound]  0.05 KOH/g

Assay: Residual amounts of fat-soluble and water-soluble pigments (HPLC)
Type: physicochemical
Conditions: aconitate/citrate products, Table 4
Method: 7. Residual amounts of fat-soluble pigments and water-soluble pigments: • a high-performance liquid chromatograph (HPLC) was used, and the instrument sensitivity and stability of the detector should comply with the provisions of GB/T 16631-2008. Chromatographic column: C18 column; injector: 10 µL micro-syringe; solvent: acetonitrile (HPLC grade); acquisition time: 15 min; mobile phase: 80% acetonitrile (HPLC grade) and 20% deionized water; injection volume: 1 µL; wavelength: 230 nm.
Test: the instrument was adjusted according to the above provisions. After the baseline was stable, 0.2 µL of the sample was injected using a micro-syringe, and the integrator or chromatographic workstation was started at the same time. A pigment concentration-integral area standard curve was established by testing the integral areas of pigments with different concentrations. When the pigment content was measured, the corresponding pigment integral area was automatically given by the instrument, and the pigment concentration was obtained by comparing with the standard curve. The ratio of the pigment concentration to the sample concentration is the pigment content.

In order of rising “Residual amounts of fat-soluble pigments” value:
1. CCCCOC(=O)C=C(CC(=O)OCCCC)C(=O)OCCCC [Example 32, tributyl aconitate]  382 ppm
2. CCCCOC(=O)C=C(CC(=O)OCCCC)C(=O)OCCCC [Example 19, tributyl aconitate]  431 ppm
3. CCCCOC(=O)CC(O)(CC(=O)OCCCC)C(=O)OCCCC [Comparative Example 5, tributyl citrate, reference compound]  852 ppm
4. CCCCOC(=O)C=C(CC(=O)OCCCC)C(=O)OCCCC [Example 24, tributyl aconitate]  1386 ppm
5. CCCCOC(=O)C=C(CC(=O)OCCCC)C(=O)OCCCC [Example 26, tributyl aconitate]  2015 ppm
6. CCCCOC(=O)C=C(CC(=O)OCCCC)C(=O)OCCCC [Comparative Example 1, tributyl aconitate, reference compound]  16424 ppm

In order of rising “Residual amounts of water-soluble pigments” value:
1. CCCCOC(=O)C=C(CC(=O)OCCCC)C(=O)OCCCC [Example 19, tributyl aconitate]  405 ppm
2. CCCCOC(=O)C=C(CC(=O)OCCCC)C(=O)OCCCC [Example 24, tributyl aconitate]  420 ppm
3. CCCCOC(=O)C=C(CC(=O)OCCCC)C(=O)OCCCC [Example 26, tributyl aconitate]  465 ppm
4. CCCCOC(=O)CC(O)(CC(=O)OCCCC)C(=O)OCCCC [Comparative Example 5, tributyl citrate, reference compound]  653 ppm
5. CCCCOC(=O)C=C(CC(=O)OCCCC)C(=O)OCCCC [Example 32, tributyl aconitate]  1325 ppm
6. CCCCOC(=O)C=C(CC(=O)OCCCC)C(=O)OCCCC [Comparative Example 1, tributyl aconitate, reference compound]  13861 ppm

Assay: Tensile properties (GB/T 1040-2006): tensile modulus at 100%, elongation at break, elastic modulus
Type: physicochemical
Conditions: PVC plastic with 35 parts plasticizer; 50 mm/min, 25°C
Method: (§1) The aconitates and tributyl citrate prepared in the above examples and comparative examples were added as plasticizers to PVC resin to obtain PVC plastics. The PVC plastics include 100 parts of PVC resin, 35 parts of plasticizer, 2 parts of oxidized polyethylene wax, and 5 parts of octyltin maleate. The above raw materials were mixed and prepared using the same mixing process to obtain finished PVC products. The performance tests were performed on different plasticizers and the obtained PVC finished products in the above examples and comparative examples. […] Three points were selected for each group of samples, each point was tested once, and a median value was taken. • 2. […] Compatibility: tests were performed using a water value method. Since water molecules are polar, the compatibility between the plasticizer and water can characterize the compatibility between the plasticizer and polar materials (PVC, PLA, and nitrile rubber). When a certain plasticizer has good compatibility with water, it has good compatibility with PVC, and vice versa. In the experiment, 2.5 g of plasticizer and 25 g of acetone were added to a beaker, titrated with a burette filled with deionized water, and agitated while titrating until turbidity appears, and the volume of deionized water consumed was recorded. • 4. Glass transition temperature (Tg): the glass transition temperature was tested using a dynamic mechanical analyzer. Test conditions: nitrogen was taken as the carrier gas, at a test temperature range of -40 to 80°C, a heating rate of 3°C/min, and a frequency of 1 Hz.

In order of rising Elastic modulus:
1. CCCCOC(=O)C=C(CC(=O)OCCCC)C(=O)OCCCC [Example 19, tributyl aconitate]  74.6 MPa
2. CCCCOC(=O)C=C(CC(=O)OCCCC)C(=O)OCCCC [Example 24, tributyl aconitate]  131.0 MPa
3. CCCCOC(=O)C=C(CC(=O)OCCCC)C(=O)OCCCC [Example 32, tributyl aconitate]  133.4 MPa
4. CCCCOC(=O)C=C(CC(=O)OCCCC)C(=O)OCCCC [Example 26, tributyl aconitate]  178.3 MPa
5. CCCCOC(=O)C=C(CC(=O)OCCCC)C(=O)OCCCC [Comparative Example 1, tributyl aconitate, reference compound]  192.2 MPa
6. CCCCOC(=O)CC(O)(CC(=O)OCCCC)C(=O)OCCCC [Comparative Example 5, tributyl citrate, reference compound]  226.4 MPa

In order of rising Elongation at break:
1. CCCCOC(=O)CC(O)(CC(=O)OCCCC)C(=O)OCCCC [Comparative Example 5, tributyl citrate, reference compound]  213.4%
2. CCCCOC(=O)C=C(CC(=O)OCCCC)C(=O)OCCCC [Comparative Example 1, tributyl aconitate, reference compound]  223.2%
3. CCCCOC(=O)C=C(CC(=O)OCCCC)C(=O)OCCCC [Example 26, tributyl aconitate]  234.1%
4. CCCCOC(=O)C=C(CC(=O)OCCCC)C(=O)OCCCC [Example 32, tributyl aconitate]  241.2%
5. CCCCOC(=O)C=C(CC(=O)OCCCC)C(=O)OCCCC [Example 24, tributyl aconitate]  242.7%
6. CCCCOC(=O)C=C(CC(=O)OCCCC)C(=O)OCCCC [Example 19, tributyl aconitate]  260.1%

In order of falling “Tensile modulus at 100%” value:
1. CCCCOC(=O)C=C(CC(=O)OCCCC)C(=O)OCCCC [Comparative Example 1, tributyl aconitate, reference compound]  17.9 MPa
2. CCCCOC(=O)CC(O)(CC(=O)OCCCC)C(=O)OCCCC [Comparative Example 5, tributyl citrate, reference compound]  17.6 MPa
3. CCCCOC(=O)C=C(CC(=O)OCCCC)C(=O)OCCCC [Example 26, tributyl aconitate]  17.5 MPa
4. CCCCOC(=O)C=C(CC(=O)OCCCC)C(=O)OCCCC [Example 24, tributyl aconitate]  15.7 MPa
5. CCCCOC(=O)C=C(CC(=O)OCCCC)C(=O)OCCCC [Example 32, tributyl aconitate]  15.6 MPa
6. CCCCOC(=O)C=C(CC(=O)OCCCC)C(=O)OCCCC [Example 19, tributyl aconitate]  14.6 MPa

Assay: Glass transition temperature (dynamic mechanical analyzer)
Type: physicochemical
Conditions: PVC plastic with 35 parts plasticizer; -40 to 80°C, 3°C/min, 1 Hz
Method: as §1

In order of rising Tg:
1. CCCCOC(=O)C=C(CC(=O)OCCCC)C(=O)OCCCC [Example 19, tributyl aconitate]  27.6 °C
2. CCCCOC(=O)C=C(CC(=O)OCCCC)C(=O)OCCCC [Example 24, tributyl aconitate]  28.6 °C
3. CCCCOC(=O)C=C(CC(=O)OCCCC)C(=O)OCCCC [Example 32, tributyl aconitate]  28.7 °C
4. CCCCOC(=O)C=C(CC(=O)OCCCC)C(=O)OCCCC [Example 26, tributyl aconitate]  28.8 °C
5. CCCCOC(=O)C=C(CC(=O)OCCCC)C(=O)OCCCC [Comparative Example 1, tributyl aconitate, reference compound]  30.7 °C
6. CCCCOC(=O)CC(O)(CC(=O)OCCCC)C(=O)OCCCC [Comparative Example 5, tributyl citrate, reference compound]  37.8 °C

Assay: Compatibility (water value method)
Type: physicochemical
Conditions: 2.5 g plasticizer and 25 g acetone titrated with deionized water until turbidity; Table 5
Method: as §1

In order of falling Compatibility:
1. CCCCOC(=O)C=C(CC(=O)OCCCC)C(=O)OCCCC [Example 19, tributyl aconitate]  16.7 mL
2. CCCCOC(=O)CC(O)(CC(=O)OCCCC)C(=O)OCCCC [Comparative Example 5, tributyl citrate, reference compound]  14.3 mL
3. CCCCOC(=O)C=C(CC(=O)OCCCC)C(=O)OCCCC [Example 24, tributyl aconitate]  13.1 mL
4. CCCCOC(=O)C=C(CC(=O)OCCCC)C(=O)OCCCC [Example 32, tributyl aconitate]  13.1 mL
5. CCCCOC(=O)C=C(CC(=O)OCCCC)C(=O)OCCCC [Example 26, tributyl aconitate]  12.2 mL
6. CCCCOC(=O)C=C(CC(=O)OCCCC)C(=O)OCCCC [Comparative Example 1, tributyl aconitate, reference compound]  10.8 mL

Assay: Chromaticity (platinum-cobalt colorimetry)
Type: physicochemical
Conditions: aconitate/citrate products, Table 4; colour comparison at 25°C
Method: 3. Chromaticity: preparation of 500# platinum-cobalt colorimetric standard stock solution: 1.2450 g of potassium chloroplatinate and 1.0000 g of cobalt chloride were weighed, with an accuracy of 0.0002 g, the mixture was dissolved in 100 mL of hydrochloric acid, and then diluted to 1000 mL with distilled water. This solution is just the 500# colorimetric standard comparison solution.
Preparation of colorimetric standards below 500#: different amounts of the 500# stock solution was prepared, and diluted with distilled water to the volume of a colorimetric tube to prepare colorimetric standard solutions of any number. The calculation formula is as follows: V = (N×V1)/500 [formula]
In the formula, V is the volume of the 500# standard stock solution taken to prepare the N# colorimetric standard solution, in mL; V1 is the volume of the colorimetric tube used, in mL; and N is the number of the colorimetric standard solution to be prepared.
Color comparison determination was performed at 25°C.

In order of falling Chromaticity:
1. CCCCOC(=O)C=C(CC(=O)OCCCC)C(=O)OCCCC [Example 26, tributyl aconitate]  70 Pt-Co
2. CCCCOC(=O)C=C(CC(=O)OCCCC)C(=O)OCCCC [Example 24, tributyl aconitate]  60 Pt-Co
3. CCCCOC(=O)C=C(CC(=O)OCCCC)C(=O)OCCCC [Example 32, tributyl aconitate]  60 Pt-Co
4. CCCCOC(=O)CC(O)(CC(=O)OCCCC)C(=O)OCCCC [Comparative Example 5, tributyl citrate, reference compound]  50 Pt-Co
5. CCCCOC(=O)C=C(CC(=O)OCCCC)C(=O)OCCCC [Example 19, tributyl aconitate]  30 Pt-Co

In the case of `CCCCOC(=O)C=C(CC(=O)OCCCC)C(=O)OCCCC` [Comparative Example 1, tributyl aconitate, reference compound], the Chromaticity was over 500 Pt-Co.

Assay: Hardness (Shore hardness tester, GB/T 531-2008)
Type: physicochemical
Conditions: PVC plastic: 100 parts PVC resin, 35 parts plasticizer, 2 parts oxidized polyethylene wax, 5 parts octyltin maleate
Method: as §1, with “The PVC plastics include 100 parts of PVC resin, 35 parts of plasticizer, 2 parts of oxidized polyethylene wax, and 5 parts of octyltin maleate.” left out

In order of rising “Hardness/Shore D” value:
1. CCCCOC(=O)C=C(CC(=O)OCCCC)C(=O)OCCCC [Example 19, tributyl aconitate]  41 Shore D
2. CCCCOC(=O)C=C(CC(=O)OCCCC)C(=O)OCCCC [Example 24, tributyl aconitate]  43 Shore D
3. CCCCOC(=O)C=C(CC(=O)OCCCC)C(=O)OCCCC [Example 32, tributyl aconitate]  43 Shore D
4. CCCCOC(=O)C=C(CC(=O)OCCCC)C(=O)OCCCC [Example 26, tributyl aconitate]  45 Shore D
5. CCCCOC(=O)C=C(CC(=O)OCCCC)C(=O)OCCCC [Comparative Example 1, tributyl aconitate, reference compound]  46 Shore D
6. CCCCOC(=O)CC(O)(CC(=O)OCCCC)C(=O)OCCCC [Comparative Example 5, tributyl citrate, reference compound]  48 Shore D

Assay: Water content (Karl Fischer moisture meter)
Type: physicochemical
Conditions: aconitate/citrate products, Table 4
Source text: 6. Water content: a Karl Fischer moisture meter is used to test the water content (retained to two decimal places).

In order of rising Water content:
1. CCCCOC(=O)C=C(CC(=O)OCCCC)C(=O)OCCCC [Example 24, tributyl aconitate]  0.02%
2. CCCCOC(=O)C=C(CC(=O)OCCCC)C(=O)OCCCC [Example 32, tributyl aconitate]  0.02%
3. CCCCOC(=O)C=C(CC(=O)OCCCC)C(=O)OCCCC [Example 19, tributyl aconitate]  0.03%
4. CCCCOC(=O)CC(O)(CC(=O)OCCCC)C(=O)OCCCC [Comparative Example 5, tributyl citrate, reference compound]  0.03%
5. CCCCOC(=O)C=C(CC(=O)OCCCC)C(=O)OCCCC [Comparative Example 1, tributyl aconitate, reference compound]  0.03%
6. CCCCOC(=O)C=C(CC(=O)OCCCC)C(=O)OCCCC [Example 26, tributyl aconitate]  0.04%

Source: EP4715056A1, “BIO-BASED TRANS-ACONITATE, PREPARATION METHOD THEREFOR AND USE THEREOF” (Qingdao Institute of Bioenergy and Bioprocess Technology, …, priority 2023, dated 2024)
